pKi: −log10 of the molar value.

The experiment has as its target T1, Caspase-1 (Homo sapiens, UniProt P29466).
T1 sequence (P29466 whole entry): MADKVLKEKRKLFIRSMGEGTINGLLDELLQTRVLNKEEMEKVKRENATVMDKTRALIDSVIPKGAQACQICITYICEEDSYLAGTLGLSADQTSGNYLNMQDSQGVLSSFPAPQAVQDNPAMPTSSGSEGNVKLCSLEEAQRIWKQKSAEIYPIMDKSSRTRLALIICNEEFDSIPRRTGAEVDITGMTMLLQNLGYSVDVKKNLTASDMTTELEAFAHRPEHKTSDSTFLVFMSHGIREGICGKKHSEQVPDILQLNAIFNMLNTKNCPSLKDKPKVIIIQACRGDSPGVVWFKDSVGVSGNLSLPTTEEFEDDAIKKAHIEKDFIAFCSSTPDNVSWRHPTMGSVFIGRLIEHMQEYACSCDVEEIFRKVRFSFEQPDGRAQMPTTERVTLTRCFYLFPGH
Put plainly: Tested for inhibition of cysteine proteinase IL-1 beta converting enzyme (ICE).
The compound `CC(C)[C@H](NC(=O)CCc1ccccc1)C(=O)N[C@@H](C)C(=O)NC(CC(=O)O)C(=O)CCCCc1ccccc1` (stereo partly drawn) had a pKi of 7.00.
`CC(C)[C@H](NC(=O)CCc1ccccc1)C(=O)N[C@@H](C)C(=O)NC(CC(=O)O)C(=O)CNCCc1ccccc1` (stereo partly drawn) showed a pKi of 8.33.
The same measure for `CC(C)[C@H](NC(=O)CCc1ccccc1)C(=O)N[C@@H](C)C(=O)NC(CC(=O)O)C(=O)C[S+]([O-])CCCc1ccccc1` (stereo partly drawn): 7.57.
Regarding `CC(C)[C@H](NC(=O)CCc1ccccc1)C(=O)N[C@@H](C)C(=O)NC(CC(=O)O)C(=O)CN(CCc1ccccc1)Cc1ccccc1` (stereo partly drawn), the pKi was 7.22.
The same measure for `CC(C)[C@H](NC(=O)CCc1ccccc1)C(=O)N[C@@H](C)C(=O)NC(CC(=O)O)C(=O)CSCCCc1ccccc1` (stereo partly drawn): 7.96.
Take `CC(C)[C@H](NC(=O)CCc1ccccc1)C(=O)N[C@@H](C)C(=O)NC(CC(=O)O)C(=O)CS(=O)(=O)CCCc1ccccc1` (stereo partly drawn): the pKi was 6.95.
The same measure for `CC(C)[C@H](NC(=O)CCc1ccccc1)C(=O)N[C@@H](C)C(=O)NC(CC(=O)O)C(=O)COC(=O)CCc1ccccc1` (stereo partly drawn): 8.57; for `CC(C)[C@H](NC(=O)CCc1ccccc1)C(=O)N[C@@H](C)C(=O)NC(CC(=O)O)C(=O)COC(=O)NCc1ccccc1` (stereo partly drawn): 6.92.

Broadly, the pKi is −log10 of the Ki, conventionally taken in molar units.

The values above are taken from ChEMBL document CHEMBL1152088, “Activated ketones as potent reversible inhibitors of interleukin-I converting enzyme” (Bioorg Med Chem Lett, 1994).
